Drawing on US8420820B2, “Pyrrolopyridinylpyrimidin-2-ylamine derivatives” (Merck Patent GmbH, priority 2008, dated 2013), this text covers IC50 for 22 compounds.

For orientation: IC50 means the concentration that gives 50% inhibition.

The target in one test is T1, PDK1 (Homo sapiens, UniProt O15530).
T1 construct: His6 (N)
Kind of test: Test for the inhibition of PDK1 (flashplate, 33P-ATP). Format: biochemical. The settings on record: His6-PDK1 3.4 nM, 4 μM ATP, 30° C., 60 min. The protocol:
The experimental batches are carried out in a flashplate system with 384 wells/microtitration plate.
In each case, the PDK1 sample His6-PDK1(SEQ ID NO: 2)(1-50)(3.4 nM), the PDK1 substrate biotin-bA-bA-[…] (SEQ ID NO: 3) (400 nM), 4 μM ATP (with 0.2 μCi of ^33P-ATP/well) and the test substance in 50 μl of conventional experimental solution per well are incubated at 30° C. for 60 min. The test substances are employed in corresponding concentrations (if desired in a dilution series). The control is carried out without test substance. The reaction is stopped using standard methods and washed. The activity of the kinase is measured via the incorporated radioactivity in top count. In order to determine the non-specific kinase reaction (blank value), the experimental batches are carried out in the presence of 100 nM staurosporin.
The radioactivity (decompositions per minute) of the blank value (no use of test substance in the presence of staurosporin) is subtracted from all other radioactivity values. The controls (kinase activity without test substance) are set equal to 100 percent and all other radioactivity values (after subtracting the blank value) are expressed set in relation thereto (for example in % of the control).
IC50 values (50% inhibition) are determined with the aid of statistics programmes, such as, for example, RS1.

In test [1] the test system is PDK1 kinase activity in PC3 cells (phospho-T308-PKB). Kind of test: Cellular testing of PDK1 kinase inhibitors in PC3 cells (Luminex, phospho-T308-PKB). Format: cell-based. The settings on record: Homo sapiens, PC-3, 0.5 h, 30 min with test substance, serum-free, phospho-T308-PKB by Luminex, read-out: IC50 [PC3 P-PKB Thr308]. The protocol:
Method for the Cellular Testing of PDK1 Kinase Inhibitors in PC3 Cells.
The cellular assay for the determination of the PDK1 kinase activity is carried out as a Luminex assay in the 96-well format. PC3 cells are sown at 20,000 cells per well in 100 μl of medium (45% of […]/45% of Ham's F12/10% of FCS) and incubated on the following day for 30 min with a serial dilution of the test substance (7 concentrations) under serum-free conditions. The cells are subsequently lysed using 90 μl of lysis buffer (20 mM tris/HCl pH 8.0, 150 mM NaCl, 1% of NP40, 10% of glycerol, 1% of phosphatase inhibitor I, 1% of phosphatase inhibitor II, 0.1% of protease inhibitor cocktail III, 0.01% of benzonase) per well, and the lysates are separated off from insoluble cell constituents by means of centrifugation through a 96-well filter plate (0.65 μm). The lysates are incubated overnight at 4° C. with shaking with Luminex beads to which an anti-total PKB antibody is coupled. The detection is carried out on the following day by addition of a phospho-T308-PKB antibody and a species-specific […] secondary antibody. The detection of phospho-T308-PKB is carried out by measurement in a Luminex100 instrument by determination of 100 events per cavity in a measurement time of 60 sec. As pharmacological blank, the signals obtained from cells which have been treated with 10 μM staurosporin are subtracted from all other batches. The control value used for maximum phosphorylation of PKB on T308 are the signals from cells which have only been treated with the solvent (0.3% of DMSO). The values of the batches treated with test substance are calculated therefrom as percentage of control, and IC50 values are determined by means of RS1.

T1 sequence (O15530 51-556): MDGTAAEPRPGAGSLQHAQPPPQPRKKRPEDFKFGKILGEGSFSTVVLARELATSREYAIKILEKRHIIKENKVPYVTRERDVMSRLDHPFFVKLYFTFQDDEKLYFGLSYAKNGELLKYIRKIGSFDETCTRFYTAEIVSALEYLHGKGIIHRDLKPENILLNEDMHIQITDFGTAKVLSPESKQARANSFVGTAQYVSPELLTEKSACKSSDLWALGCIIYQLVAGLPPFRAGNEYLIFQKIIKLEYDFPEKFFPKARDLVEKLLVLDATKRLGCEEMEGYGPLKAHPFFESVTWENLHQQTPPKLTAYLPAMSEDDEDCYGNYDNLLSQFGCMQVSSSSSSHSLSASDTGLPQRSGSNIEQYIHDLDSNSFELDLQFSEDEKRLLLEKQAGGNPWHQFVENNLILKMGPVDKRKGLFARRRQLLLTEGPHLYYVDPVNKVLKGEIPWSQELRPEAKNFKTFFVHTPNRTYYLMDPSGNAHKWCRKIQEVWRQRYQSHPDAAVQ

With `CCc1cc(-c2c[nH]c3ncc(-c4cnn(CC(=O)N5CCOCC5)c4)cc23)nc(N)n1` [Compound A32, 2-{4-[3-(2-Amino-6-ethylpyrimidin-4-yl)-1H-pyrrolo[2,3-b]pyridin-5-yl]pyrazol-1-yl}-1-morpholin-4-ylethanone], the IC50 lay in the range of 0.01 to 1 µM against PDK1 and 10 to 20 µM in test [1].

In the case of `CCc1cc(-c2c[nH]c3ncc(-c4cnn(CCO)c4)cc23)nc(N)n1` [Compound A33, 2-{4-[3-(2-Amino-6-ethylpyrimidin-4-yl)-1H-pyrrolo[2,3-b]pyridin-5-yl]pyrazol-1-yl}ethanol], the IC50 at PDK1 was 0.01 to 1 µM; in test [1], 10 to 20 µM.

Take `CCc1cc(-c2c[nH]c3ncc(-c4cnn(CC(=O)N(C)C)c4)cc23)nc(N)n1` [Compound A34, 2-{4-[3-(2-Amino-6-ethylpyrimidin-4-yl)-1H-pyrrolo[2,3-b]pyridin-5-yl]pyrazol-1-yl}-N,N-dimethylacetamide]: the figures for the IC50 (against PDK1; in test [1]) were 0.01 to 1 µM and 10 to 20 µM, respectively.

`CCCC(O)c1cc(-c2c[nH]c3ncc(-c4cnn(C(C)C)c4)cc23)nc(N)n1` (centres unmarked) [Compound A35, 1-{2-Amino-6-[5-(1-isopropyl-1H-pyrazol-4-yl)-1H-pyrrolo[2,3-b]pyridin-3-yl]-pyrimidin-4-yl}butan-1-ol]: the IC50 is 0.01 to 1 µM at PDK1 and 1 to 10 µM in test [1].

Take `CC(O)Cc1cc(-c2c[nH]c3ncc(-c4cnn(C(C)C)c4)cc23)nc(N)n1` (centres unmarked) [Compound A36, 1-{2-Amino-6-[5-(1-isopropyl-1H-pyrazol-4-yl)-1H-pyrrolo[2,3-b]pyridin-3-yl]-pyrimidin-4-yl}propan-2-ol]: the results for the IC50 (at PDK1; in test [1]) were 0.01 to 1 µM and 10 to 20 µM, respectively.

On to `CCc1cc(-c2c[nH]c3ncc(-c4ccc(Cl)s4)cc23)nc(N)n1` [Compound A37, 4-[5-(5-Chlorothiophen-2-yl)-1H-pyrrolo[2,3-b]pyridin-3-yl]-6-ethylpyrimidin-2-ylamine], for which the figures for the IC50 (against PDK1; in test [1]) were 1 to 10 µM and 10 to 20 µM, respectively.

For `CC(C)n1cc(-c2cnc3[nH]cc(-c4cc(CCCO)nc(N)n4)c3c2)cn1` [Compound A38, 3-{2-Amino-6-[5-(1-isopropyl-1H-pyrazol-4-yl)-1H-pyrrolo[2,3-b]pyridin-3-yl]-pyrimidin-4-yl}propan-1-ol], the IC50 against PDK1 fell in the range of 0.01 to 1 µM; in test [1] it was 10 to 20 µM.

As for `CN(C)CCn1cc(-c2cnc3[nH]cc(-c4cc(CCCCO)nc(N)n4)c3c2)cn1` [Compound A39, 4-(2-Amino-6-{5-[1-(2-dimethylaminoethyl)-1H-pyrazol-4-yl]-1H-pyrrolo-[2,3-b]pyridin-3-yl}pyrimidin-4-yl)butan-1-ol], the results for the IC50 (at PDK1; in test [1]) were 0.01 to 1 µM and 10 to 20 µM, respectively.

In the case of `CC(C)n1cc(-c2cnc3[nH]cc(-c4cc(CCCCO)nc(N)n4)c3c2)cn1` [Compound A40, 4-{2-Amino-6-[5-(1-isopropyl-1H-pyrazol-4-yl)-1H-pyrrolo[2,3-b]pyridin-3-yl]-pyrimidin-4-yl}butan-1-ol], the IC50 against PDK1 was 0.01 to 1 µM; in test [1], 1 to 10 µM.

Regarding `CN(C)CCn1cc(-c2cnc3[nH]cc(-c4cc(CCN5CCN(C)CC5)nc(N)n4)c3c2)cn1` [Compound A41, 4-{5-[1-(2-Dimethylaminoethyl)-1H-pyrazol-4-yl]-1H-pyrrolo[2,3-b]pyridin-3-yl}-6-[2-(4-methylpiperazin-1-yl)ethyl]pyrimidin-2-ylamine], the IC50 against PDK1 was 0.01 to 1 µM; in test [1], 10 to 20 µM.

Turning to `CCc1cc(-c2c[nH]c3ncc(-c4ncc(-c5cccc(N)c5)o4)cc23)nc(N)n1` [Compound A42, 4-{5-[5-(3-Aminophenyl)oxazol-2-yl]-1H-pyrrolo[2,3-b]pyridin-3-yl}-6-ethylpyrimidin-2-ylamine], the IC50 at PDK1 was in the range of 1 to 10 µM; in test [1] it was 10 to 20 µM.

Take `CC(C)n1cc(-c2cnc3[nH]cc(-c4cc(CCN5CCN(C)CC5)nc(N)n4)c3c2)cn1` [Compound A43, 4-[5-(1-Isopropyl-1H-pyrazol-4-yl)-1H-pyrrolo[2,3-b]pyridin-3-yl]-6-[2-(4-methylpiperazin-1-yl)ethyl]pyrimidin-2-ylamine]: the IC50 on PDK1 lay within 0.01 to 1 µM; in test [1], 10 to 20 µM.

Consider `CCc1cc(-c2c[nH]c3ncc(-c4cnn(C5CCN(S(C)(=O)=O)CC5)c4)cc23)nc(N)n1` [Compound A44, 4-Ethyl-6-{5-[1-(1-methanesulfonylpiperidin-4-yl)-1H-pyrazol-4-yl]-1H-pyrrolo[2,3-b]pyridin-3-yl}pyrimidin-2-ylamine], for which the IC50 at PDK1 is 0.01 to 1 µM; in test [1], 1 to 10 µM.

Take `CCc1cc(-c2c[nH]c3ncc(-c4cnn(C5CCN(C(C)=O)CC5)c4)cc23)nc(N)n1` [Compound A46, 1-(4-{4-[3-(2-Amino-6-ethylpyrimidin-4-yl)-1H-pyrrolo[2,3-b]pyridin-5-yl]-pyrazol-1-yl}piperidin-1-yl)ethanone]: the results for the IC50 (against PDK1; in test [1]) were 0.01 to 1 µM and 10 to 20 µM, respectively.

`CCCC(O)c1cc(-c2c[nH]c3ncccc23)nc(N)n1` (centres unmarked) [Compound A48, 1-[2-Amino-6-(1H-pyrrolo[2,3-b]pyridin-3-yl)pyrimidin-4-yl]butan-1-ol]: the IC50 against PDK1 is 1 to 10 µM; in test [1] it was 10 to 20 µM.

Turning to `Nc1nc(CCN2CCOCC2)cc(-c2c[nH]c3ncccc23)n1` [Compound A49, 4-(2-Morpholin-4-ylethyl)-6-(1H-pyrrolo[2,3-b]pyridin-3-yl)pyrimidin-2-ylamine], the IC50 lay in the range of 1 to 10 µM on PDK1 and 10 to 20 µM in test [1].

Take `CN1CCN(CCc2cc(-c3c[nH]c4ncccc34)nc(N)n2)CC1` [Compound A50, 4-[2-(4-Methylpiperazin-1-yl)ethyl]-6-(1H-pyrrolo[2,3-b]pyridin-3-yl)pyrimidin-2-ylamine]: the IC50 lay within 1 to 10 µM against PDK1 and 10 to 20 µM in test [1].

Turning to `CCc1cc(-c2c[nH]c3ncc(-c4cnn(CC(=O)NC)c4)cc23)nc(N)n1` [Compound A51, 2-{4-[3-(2-Amino-6-ethylpyrimidin-4-yl)-1H-pyrrolo[2,3-b]pyridin-5-yl]pyrazol-1-yl}-N-methylacetamide], the IC50 at PDK1 was in the range of 0.01 to 1 µM; in test [1] it was 10 to 20 µM.

Turning to `CCc1cc(-c2c[nH]c3ncc(-c4cnn(CC(=O)NC5CC5)c4)cc23)nc(N)n1` [Compound A52, 2-{4-[3-(2-Amino-6-ethylpyrimidin-4-yl)-1H-pyrrolo[2,3-b]pyridin-5-yl]pyrazol-1-yl}-N-cyclopropylacetamide], the IC50 lay in the range of 0.01 to 1 µM on PDK1 and 10 to 20 µM in test [1].

As to `CC(C)n1cc(-c2cnc3[nH]cc(-c4cc(C5(O)CCCCC5)nc(N)n4)c3c2)cn1` [Compound A53, 1-{2-Amino-6-[5-(1-isopropyl-1H-pyrazol-4-yl)-1H-pyrrolo[2,3-b]pyridin-3-yl]-pyrimidin-4-yl}cyclohexanol], the IC50 against PDK1 was in the range of 0.01 to 1 µM; in test [1], 10 to 20 µM.

For `CC(C)n1cc(-c2cnc3[nH]cc(-c4cc(C5(O)CCCC5)nc(N)n4)c3c2)cn1` [Compound A54, 1-{2-Amino-6-[5-(1-isopropyl-1H-pyrazol-4-yl)-1H-pyrrolo[2,3-b]pyridin-3-yl]-pyrimidin-4-yl}cyclopentanol], the IC50 was in the range of 0.01 to 1 µM on PDK1 and 10 to 20 µM in test [1].

Turning to `CCCCc1cc(-c2c[nH]c3ncc(-c4cnn(CC(=O)N5CCCCC5)c4)cc23)nc(N)n1` [Compound A58, 2-{4-[3-(2-amino-6-butylpyrimidin-4-yl)-1H-pyrrolo[2,3-b]pyridin-5-yl]-pyrazol-1-yl}-1-piperidin-1-ylethanone], the IC50 against PDK1 is 0.01 to 1 µM; in test [1] it was 1 to 10 µM.
